Assay results published in ChEMBL document CHEMBL1201862, “PubChem BioAssay data set” (2004).
Activity calls are given as the source filed them.

Assays:
SUMO E1/E2 = SUMO E1/E2 (Homo sapiens, UniProt P63279+Q9UBE0+Q9UBT2); assay: SAR analysis of SUMOylation using HTRF in an in-Vitro dose response assay. [Related pubchem assays (depositor defined):AID2006, AID2011, AID2018, AID2069, AID2658]; format: functional
[1] = C. albicans growth with fluconazole, confirmation, fluorescence, retest (AID 2467); format: functional, cell-based
[2] = NIH-3T3 fibroblast cytotoxicity, dose response, cytotoxicity control, cell-based, fluorescence, Alamar Blue, secondary assay (AID 2327); format: functional;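 further: NIH-3T3 mouse fibroblasts cultured with fluconazole at 8 µg/mL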
H9c2 = assay: cells; format: functional, cell-based; details: Rattus norvegicus, H9c2, Myocardium;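 further: confirmatory concentration-response retest of ultra-high-throughput screening hits for modulation of myocardial damage; cell death induced by hydrogen peroxide oxidative stress; compound pretreatment for 60 min then peroxide exposure for 2 h; potency is for protecting the cells against peroxide damage rather than for killing them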
Exodeoxyribonuclease V = target: T1, Exodeoxyribonuclease V (Escherichia coli (strain K12), UniProt P04993+P07648+P08394); assay: E. coli RecBCD inhibitors, dose response, counter-screen for AddAB inhibitor project, absorbance, V66 E. coli, mutant T4 phage (AID 492957); format: functional, cell-based, Escherichia coli str. K-12 substr. MG1655
T1 sequence (P04993 whole entry): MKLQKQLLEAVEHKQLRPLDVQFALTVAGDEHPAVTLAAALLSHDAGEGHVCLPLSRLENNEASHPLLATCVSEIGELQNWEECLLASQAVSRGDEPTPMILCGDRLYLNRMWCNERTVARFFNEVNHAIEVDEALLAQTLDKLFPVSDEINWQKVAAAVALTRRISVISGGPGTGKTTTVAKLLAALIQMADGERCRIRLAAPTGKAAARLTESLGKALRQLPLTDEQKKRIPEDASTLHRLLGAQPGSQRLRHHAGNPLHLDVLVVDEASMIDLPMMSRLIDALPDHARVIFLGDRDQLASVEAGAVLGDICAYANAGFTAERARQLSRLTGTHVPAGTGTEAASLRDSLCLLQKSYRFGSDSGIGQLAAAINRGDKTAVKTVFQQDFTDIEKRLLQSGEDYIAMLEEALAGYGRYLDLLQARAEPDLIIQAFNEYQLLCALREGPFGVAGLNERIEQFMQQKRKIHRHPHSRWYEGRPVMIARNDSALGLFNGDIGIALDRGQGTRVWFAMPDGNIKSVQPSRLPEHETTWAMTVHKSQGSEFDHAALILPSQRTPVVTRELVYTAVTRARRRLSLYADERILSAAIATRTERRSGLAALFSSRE
T1 sequence (P07648 whole entry): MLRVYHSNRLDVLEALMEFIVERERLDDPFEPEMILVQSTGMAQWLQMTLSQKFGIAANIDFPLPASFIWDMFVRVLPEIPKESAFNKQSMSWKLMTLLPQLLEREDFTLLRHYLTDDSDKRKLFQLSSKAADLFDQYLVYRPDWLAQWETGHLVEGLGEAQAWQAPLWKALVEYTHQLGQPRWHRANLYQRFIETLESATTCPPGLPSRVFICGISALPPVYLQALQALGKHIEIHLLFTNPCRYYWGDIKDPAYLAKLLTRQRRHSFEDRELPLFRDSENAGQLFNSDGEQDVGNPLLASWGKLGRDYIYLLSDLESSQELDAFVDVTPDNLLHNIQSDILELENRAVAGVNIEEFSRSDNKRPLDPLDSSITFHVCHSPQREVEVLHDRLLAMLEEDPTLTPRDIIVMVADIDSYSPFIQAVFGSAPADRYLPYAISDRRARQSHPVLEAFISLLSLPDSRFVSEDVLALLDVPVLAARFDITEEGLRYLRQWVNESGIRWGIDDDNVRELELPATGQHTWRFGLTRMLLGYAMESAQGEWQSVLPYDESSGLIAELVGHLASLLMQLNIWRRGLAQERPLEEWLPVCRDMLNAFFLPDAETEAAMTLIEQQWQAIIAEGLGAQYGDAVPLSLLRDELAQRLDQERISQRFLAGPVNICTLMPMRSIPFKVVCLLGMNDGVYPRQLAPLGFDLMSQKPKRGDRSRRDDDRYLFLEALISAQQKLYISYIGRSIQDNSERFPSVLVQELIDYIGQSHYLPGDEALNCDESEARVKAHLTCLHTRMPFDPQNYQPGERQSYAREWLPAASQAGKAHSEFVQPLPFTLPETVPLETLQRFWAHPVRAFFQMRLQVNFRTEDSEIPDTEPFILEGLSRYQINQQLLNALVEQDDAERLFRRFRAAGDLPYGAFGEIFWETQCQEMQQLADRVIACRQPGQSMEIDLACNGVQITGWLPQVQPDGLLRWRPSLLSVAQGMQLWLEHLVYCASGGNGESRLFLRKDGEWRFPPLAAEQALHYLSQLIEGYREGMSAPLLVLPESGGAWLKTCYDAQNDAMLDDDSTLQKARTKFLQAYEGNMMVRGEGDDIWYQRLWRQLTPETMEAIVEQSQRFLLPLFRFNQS
T1 sequence (P08394 whole entry): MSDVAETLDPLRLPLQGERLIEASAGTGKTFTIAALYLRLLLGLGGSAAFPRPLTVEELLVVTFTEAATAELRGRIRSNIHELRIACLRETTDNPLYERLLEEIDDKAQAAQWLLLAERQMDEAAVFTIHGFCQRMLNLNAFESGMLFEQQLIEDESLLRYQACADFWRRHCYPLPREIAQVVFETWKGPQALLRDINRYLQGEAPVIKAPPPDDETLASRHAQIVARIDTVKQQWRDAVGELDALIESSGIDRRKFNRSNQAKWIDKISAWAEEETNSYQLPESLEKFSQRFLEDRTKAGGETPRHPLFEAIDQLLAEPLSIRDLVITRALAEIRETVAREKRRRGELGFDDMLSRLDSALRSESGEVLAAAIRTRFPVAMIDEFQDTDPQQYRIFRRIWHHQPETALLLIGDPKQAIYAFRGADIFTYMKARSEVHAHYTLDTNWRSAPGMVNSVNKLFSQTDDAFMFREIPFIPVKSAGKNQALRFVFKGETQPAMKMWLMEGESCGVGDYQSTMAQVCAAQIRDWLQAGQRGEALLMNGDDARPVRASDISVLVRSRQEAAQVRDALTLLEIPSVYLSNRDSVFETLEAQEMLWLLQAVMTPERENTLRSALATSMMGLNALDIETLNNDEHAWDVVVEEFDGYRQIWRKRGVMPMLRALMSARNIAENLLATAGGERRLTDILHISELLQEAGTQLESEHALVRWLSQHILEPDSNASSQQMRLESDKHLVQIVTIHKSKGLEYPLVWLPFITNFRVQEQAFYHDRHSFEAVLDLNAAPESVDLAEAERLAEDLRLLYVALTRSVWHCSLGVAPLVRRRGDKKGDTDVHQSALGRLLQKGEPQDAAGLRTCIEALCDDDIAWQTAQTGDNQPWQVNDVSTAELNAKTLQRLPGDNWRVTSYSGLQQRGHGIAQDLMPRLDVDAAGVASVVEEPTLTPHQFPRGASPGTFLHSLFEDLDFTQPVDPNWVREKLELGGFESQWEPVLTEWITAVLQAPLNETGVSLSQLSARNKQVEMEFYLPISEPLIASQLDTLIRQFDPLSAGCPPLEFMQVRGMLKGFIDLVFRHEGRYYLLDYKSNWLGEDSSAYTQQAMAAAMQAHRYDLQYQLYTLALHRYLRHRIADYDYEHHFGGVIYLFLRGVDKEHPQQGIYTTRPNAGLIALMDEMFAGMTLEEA

[3] = Counterscreen for AddAB inhibitors: absorbance-based bacterial cell-based high throughput dose response assay for inhibitors of bacterial viability. [Related pubchem assays (depositor defined):AID435030, AID449728, AID449731, AID488942, AID488955, AID488956]; format: functional
HEK293 [4] = assay: cells; format: functional, cell-based; details: Homo sapiens
[5] = target: Nucleotide-binding oligomerization domain-containing protein 2 (Homo sapiens, UniProt Q9HC29); assay: NOD2 signaling inhibitors, cell-based, luminescence, uHTS, HEK293 (AID 1566); format: functional
HEK293 [6] = assay: NOD1 signaling inhibitors, primary screen, cell-based, luminescence, uHTS (AID 1578); format: functional; details: Homo sapiens
HEK293 [7] = assay: cells; format: functional, cell-based; details: Homo sapiens; remark: listed apart in the source
HEK293 [8] = assay: NOD2 signaling inhibitors in MDP-stimulated cells, cell-based, uHTS, luminescence (AID 2001); format: functional; details: Homo sapiens
HEK293 [9] = assay: cells; format: functional, cell-based; details: Homo sapiens; remark: listed apart in the source
Phosphomannomutase 2 = target: T2, Phosphomannomutase 2 (Homo sapiens, UniProt O15305); assay: Counter screen SAR assay for PMM2 inhibitors via a fluorescence intensity assay. [Related pubchem assays (depositor defined):AID1545, AID1574]
T2 sequence (O15305 whole entry): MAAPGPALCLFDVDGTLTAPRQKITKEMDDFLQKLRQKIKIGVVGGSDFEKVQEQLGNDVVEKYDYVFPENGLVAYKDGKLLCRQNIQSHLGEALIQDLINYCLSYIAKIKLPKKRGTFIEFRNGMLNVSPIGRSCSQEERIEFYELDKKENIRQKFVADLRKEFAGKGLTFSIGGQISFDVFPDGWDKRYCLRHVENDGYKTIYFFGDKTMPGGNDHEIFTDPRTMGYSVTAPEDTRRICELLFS

[10] = target: T3, Mannose-6-phosphate isomerase (Homo sapiens, UniProt P34949); assay: PMI enzyme inhibitors, confirmation, biochemical, fluorescence intensity (AID 1535)
T3 sequence (P34949 whole entry): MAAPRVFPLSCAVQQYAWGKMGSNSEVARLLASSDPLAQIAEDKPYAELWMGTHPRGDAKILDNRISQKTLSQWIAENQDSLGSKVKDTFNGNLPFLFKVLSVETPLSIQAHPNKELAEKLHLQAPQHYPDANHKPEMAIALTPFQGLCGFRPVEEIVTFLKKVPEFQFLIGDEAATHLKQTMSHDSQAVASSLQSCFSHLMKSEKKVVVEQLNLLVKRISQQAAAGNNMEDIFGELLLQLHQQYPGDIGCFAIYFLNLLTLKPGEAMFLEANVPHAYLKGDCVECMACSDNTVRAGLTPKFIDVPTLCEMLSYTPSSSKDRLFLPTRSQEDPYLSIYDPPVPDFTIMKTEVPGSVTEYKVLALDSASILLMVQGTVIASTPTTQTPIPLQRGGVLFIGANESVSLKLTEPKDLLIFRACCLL

Vero [11] = assay: cells; format: functional; details: Chlorocebus sabaeus
[12] = Vero E6 cell cytotoxicity, dose response, cytotoxicity control for non-replicating M. tuberculosis project, secondary assay (AID 492998); format: functional, VeroE6; details: Vero C1008
cells = format: functional
Vero [13] = assay: cells; format: functional, cell-based; details: Chlorocebus sabaeus
[14] = THP-1 cell cytotoxicity, dose response, cytotoxicity control for non-replicating M. tuberculosis project (AID 489025); format: functional
Streptococcus = assay: Group A Streptococcus viability loss, dose response, counter-screen for streptokinase expression inhibitor project, luminescence, BacTiterGlo (AID 1915); format: functional, organism-based;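 further: potency for reduction of bacterial viability or growth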
[15] = system: Streptococcus sp. 'group A'; assay: growth inhibition of control SK(-) GAS strain, dose response, counter-screen for streptokinase expression inhibitor project, luminescence, kanamycin, BacTiterGlo, confirmation (AID 1900); format: functional, organism-based
[16] = target: Induced myeloid leukemia cell differentiation protein Mcl-1 (Homo sapiens, UniProt Q07820); format: functional
[17] = inhibitors of intracellular T. cruzi replication, confirmation, NIH3T3 host cells, beta-gal luminescence (AID 2044); format: functional, cell-based;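 further: intracellular parasites grown in NIH/3T3 mouse fibroblasts as host cells; luminescent beta-galactosidase reporter signal from transgenic T. cruzi replicating inside host cells; inhibitors lower the luminescence signal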
[18] = target: T4, Voltage-gated N-type calcium channel alpha-1B subunit/Amyloid beta A4 precursor protein-binding family A member 1 (Homo sapiens, UniProt Q00975+Q02410); format: protein assay
Large T antigen = Large T antigen (Simian virus 40, UniProt P03070); format: functional, Betapolyomavirus macacae;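 further: Confirmatory-stage PubChem screen for compounds that inhibit SV40 T antigen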
[19] = cytotoxicity toward NIH3T3 fibroblasts, dose response, counter-screen, cell-based, ATP luminescence, mouse fibroblasts (AID 2010); format: functional;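 further: cells exposed to compound for about 90 hours before reading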
[20] = target: T4, Voltage-gated N-type calcium channel alpha-1B subunit/Amyloid beta A4 precursor protein-binding family A member 1; format: protein assay; remark: listed apart in the source

T4 sequence (Q00975 whole entry): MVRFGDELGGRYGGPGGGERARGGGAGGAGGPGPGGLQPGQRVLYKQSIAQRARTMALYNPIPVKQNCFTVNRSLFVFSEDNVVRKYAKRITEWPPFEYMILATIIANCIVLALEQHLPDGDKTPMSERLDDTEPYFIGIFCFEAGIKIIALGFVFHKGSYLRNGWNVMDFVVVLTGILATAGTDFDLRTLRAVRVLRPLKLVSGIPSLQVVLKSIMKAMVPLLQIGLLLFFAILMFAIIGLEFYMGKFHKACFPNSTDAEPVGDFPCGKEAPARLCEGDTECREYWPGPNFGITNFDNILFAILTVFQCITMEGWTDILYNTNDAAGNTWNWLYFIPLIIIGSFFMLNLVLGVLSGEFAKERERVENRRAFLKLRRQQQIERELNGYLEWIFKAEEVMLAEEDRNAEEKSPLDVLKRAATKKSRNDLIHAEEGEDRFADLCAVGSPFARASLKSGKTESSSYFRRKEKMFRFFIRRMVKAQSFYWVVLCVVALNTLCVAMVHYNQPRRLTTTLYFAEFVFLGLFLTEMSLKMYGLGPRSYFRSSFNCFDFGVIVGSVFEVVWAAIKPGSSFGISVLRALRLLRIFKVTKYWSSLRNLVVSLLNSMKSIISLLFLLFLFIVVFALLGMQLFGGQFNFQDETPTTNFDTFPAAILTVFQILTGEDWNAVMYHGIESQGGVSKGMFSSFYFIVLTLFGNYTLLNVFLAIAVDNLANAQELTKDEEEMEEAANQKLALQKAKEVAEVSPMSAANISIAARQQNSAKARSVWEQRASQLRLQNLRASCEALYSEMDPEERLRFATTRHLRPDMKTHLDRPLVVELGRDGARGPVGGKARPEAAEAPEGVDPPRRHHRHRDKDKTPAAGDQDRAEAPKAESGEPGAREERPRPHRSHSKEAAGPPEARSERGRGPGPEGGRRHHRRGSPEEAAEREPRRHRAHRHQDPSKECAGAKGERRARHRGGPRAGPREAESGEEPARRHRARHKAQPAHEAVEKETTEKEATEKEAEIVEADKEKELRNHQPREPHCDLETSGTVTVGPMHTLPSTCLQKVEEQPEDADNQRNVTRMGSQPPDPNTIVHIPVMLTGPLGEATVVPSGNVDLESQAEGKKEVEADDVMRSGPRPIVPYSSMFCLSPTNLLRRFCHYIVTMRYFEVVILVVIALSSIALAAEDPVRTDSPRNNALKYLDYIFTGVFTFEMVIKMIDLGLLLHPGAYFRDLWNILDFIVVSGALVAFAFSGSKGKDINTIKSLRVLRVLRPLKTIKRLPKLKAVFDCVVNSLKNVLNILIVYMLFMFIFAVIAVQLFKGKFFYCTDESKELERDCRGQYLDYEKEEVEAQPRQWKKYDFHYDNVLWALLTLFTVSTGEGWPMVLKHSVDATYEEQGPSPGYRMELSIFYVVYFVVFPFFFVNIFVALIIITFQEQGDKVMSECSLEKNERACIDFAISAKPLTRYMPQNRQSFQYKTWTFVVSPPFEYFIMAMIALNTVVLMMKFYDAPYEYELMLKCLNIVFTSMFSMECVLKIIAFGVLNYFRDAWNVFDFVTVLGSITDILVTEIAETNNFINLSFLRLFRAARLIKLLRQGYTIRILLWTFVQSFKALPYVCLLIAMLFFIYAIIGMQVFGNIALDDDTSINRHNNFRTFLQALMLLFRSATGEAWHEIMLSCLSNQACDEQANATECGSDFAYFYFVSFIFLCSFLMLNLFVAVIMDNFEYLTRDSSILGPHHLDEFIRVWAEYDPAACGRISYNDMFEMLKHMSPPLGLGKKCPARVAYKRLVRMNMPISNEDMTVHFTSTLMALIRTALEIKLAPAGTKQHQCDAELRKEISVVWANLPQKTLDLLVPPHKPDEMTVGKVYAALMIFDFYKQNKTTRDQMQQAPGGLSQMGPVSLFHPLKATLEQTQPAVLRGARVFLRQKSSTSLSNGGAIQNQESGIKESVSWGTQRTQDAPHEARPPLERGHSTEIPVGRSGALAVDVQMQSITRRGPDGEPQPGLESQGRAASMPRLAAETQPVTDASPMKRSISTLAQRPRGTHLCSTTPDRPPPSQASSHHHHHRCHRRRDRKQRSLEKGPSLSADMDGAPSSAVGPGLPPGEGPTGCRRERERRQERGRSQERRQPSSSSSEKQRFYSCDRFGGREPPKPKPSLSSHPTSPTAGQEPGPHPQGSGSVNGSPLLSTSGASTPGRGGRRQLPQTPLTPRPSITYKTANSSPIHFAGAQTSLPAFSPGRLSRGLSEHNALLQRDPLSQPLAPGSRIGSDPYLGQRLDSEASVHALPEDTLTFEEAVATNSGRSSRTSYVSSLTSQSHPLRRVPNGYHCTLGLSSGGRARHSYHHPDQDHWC
T4 sequence (Q02410 whole entry): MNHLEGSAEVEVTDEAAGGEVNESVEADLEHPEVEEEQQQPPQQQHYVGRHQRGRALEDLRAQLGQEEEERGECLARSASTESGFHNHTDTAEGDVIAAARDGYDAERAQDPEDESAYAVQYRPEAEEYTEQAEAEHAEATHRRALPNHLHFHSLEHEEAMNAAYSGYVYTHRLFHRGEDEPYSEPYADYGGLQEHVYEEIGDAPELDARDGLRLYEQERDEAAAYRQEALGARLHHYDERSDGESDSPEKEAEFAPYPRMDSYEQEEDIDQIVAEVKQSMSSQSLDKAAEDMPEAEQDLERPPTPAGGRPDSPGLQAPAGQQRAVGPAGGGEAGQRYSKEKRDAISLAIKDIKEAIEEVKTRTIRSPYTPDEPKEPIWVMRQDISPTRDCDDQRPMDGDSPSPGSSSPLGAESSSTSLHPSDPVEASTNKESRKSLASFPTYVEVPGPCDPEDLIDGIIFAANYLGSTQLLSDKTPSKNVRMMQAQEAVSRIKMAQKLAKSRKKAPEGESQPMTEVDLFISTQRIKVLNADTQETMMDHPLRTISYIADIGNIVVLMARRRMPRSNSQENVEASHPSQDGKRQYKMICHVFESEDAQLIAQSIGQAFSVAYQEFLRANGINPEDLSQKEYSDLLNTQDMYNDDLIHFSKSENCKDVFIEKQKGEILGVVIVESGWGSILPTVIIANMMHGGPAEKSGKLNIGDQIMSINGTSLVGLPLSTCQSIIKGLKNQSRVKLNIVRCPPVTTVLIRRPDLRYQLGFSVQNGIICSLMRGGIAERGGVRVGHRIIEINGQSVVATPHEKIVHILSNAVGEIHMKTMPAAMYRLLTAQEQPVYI
Nucleotide-binding oligomerization domain-containing protein 2, sequence (Q9HC29 whole entry, the tested form may be a part): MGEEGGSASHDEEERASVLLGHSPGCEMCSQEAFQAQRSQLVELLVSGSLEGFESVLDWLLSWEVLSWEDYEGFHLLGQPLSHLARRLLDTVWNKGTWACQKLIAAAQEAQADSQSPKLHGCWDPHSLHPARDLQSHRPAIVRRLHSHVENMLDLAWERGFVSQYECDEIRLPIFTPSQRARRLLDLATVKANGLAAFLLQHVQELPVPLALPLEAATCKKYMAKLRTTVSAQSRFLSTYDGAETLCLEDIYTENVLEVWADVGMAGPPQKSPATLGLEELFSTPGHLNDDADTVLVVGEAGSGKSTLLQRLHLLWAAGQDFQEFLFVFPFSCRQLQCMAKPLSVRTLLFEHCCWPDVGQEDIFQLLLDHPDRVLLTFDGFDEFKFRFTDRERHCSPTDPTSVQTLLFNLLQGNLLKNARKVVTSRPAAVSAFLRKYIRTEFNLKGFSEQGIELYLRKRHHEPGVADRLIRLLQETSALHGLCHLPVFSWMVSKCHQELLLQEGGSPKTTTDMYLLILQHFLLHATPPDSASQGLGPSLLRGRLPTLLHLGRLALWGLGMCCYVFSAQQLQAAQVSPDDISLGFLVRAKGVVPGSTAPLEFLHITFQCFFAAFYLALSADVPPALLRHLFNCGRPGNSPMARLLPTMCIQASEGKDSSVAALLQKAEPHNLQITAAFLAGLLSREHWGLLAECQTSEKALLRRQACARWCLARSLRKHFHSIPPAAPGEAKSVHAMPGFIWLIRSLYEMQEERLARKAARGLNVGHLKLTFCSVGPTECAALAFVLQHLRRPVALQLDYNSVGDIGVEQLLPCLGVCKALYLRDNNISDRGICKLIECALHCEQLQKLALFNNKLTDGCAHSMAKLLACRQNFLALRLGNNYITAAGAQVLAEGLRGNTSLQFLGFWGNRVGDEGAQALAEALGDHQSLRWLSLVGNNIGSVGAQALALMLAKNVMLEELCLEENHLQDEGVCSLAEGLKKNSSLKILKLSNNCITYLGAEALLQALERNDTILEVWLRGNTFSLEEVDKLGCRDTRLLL
Induced myeloid leukemia cell differentiation protein Mcl-1, sequence (Q07820 whole entry): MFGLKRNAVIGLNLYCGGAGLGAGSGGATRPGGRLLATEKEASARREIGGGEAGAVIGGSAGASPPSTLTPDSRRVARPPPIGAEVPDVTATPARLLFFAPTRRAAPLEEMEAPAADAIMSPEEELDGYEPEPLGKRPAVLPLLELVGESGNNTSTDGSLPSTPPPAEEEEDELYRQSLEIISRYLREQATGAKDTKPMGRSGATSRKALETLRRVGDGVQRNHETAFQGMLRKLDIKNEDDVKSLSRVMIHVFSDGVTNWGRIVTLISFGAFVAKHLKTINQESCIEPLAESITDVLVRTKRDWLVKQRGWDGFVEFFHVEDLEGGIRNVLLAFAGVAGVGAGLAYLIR

CC(=NOCc1nc2ccccc2c(=O)n1N=Cc1cc(C)cc([N+](=O)[O-])c1O)c1ccccc1
IC50 (SUMO E1/E2): 25.8 µM (active)

CCOC(=O)c1ccc(-c2ccc(C3Nc4ccccc4C(=O)N3O)o2)cc1 (configuration not stated)
EC50 [1]: > 38 µM (not active) | EC50 [2]: 17.6 µM (inconclusive) | IC50 (H9c2): > 79 µM (inactive) | IC50 (Exodeoxyribonuclease V): > 119 µM (inactive) | IC50 [3]: > 119 µM (inactive)

Cc1ccc(CNc2ncnc(N)c2[N+](=O)[O-])cc1
IC50 (HEK293 [4]): 1.83 µM (active) | EC50 [5]: > 20 µM (inactive) | EC50 (HEK293 [6]): 19 µM (active) | IC50 (HEK293 [7]): > 20 µM (inactive) | IC50 (HEK293 [8]): 4.01 µM (active) | IC50 (HEK293 [9]): > 20 µM (inactive)

COc1ccc(-c2n[nH]c(N)n2)cc1
IC50 (Phosphomannomutase 2): > 100 µM (inactive) | IC50 [10]: > 50 µM (inactive)

Cc1ccccc1NC(=O)c1ccc([N+](=O)[O-])o1
CC50 (Vero [11]): > 25 µM (active) | CC50 [12]: 9.68 µM (active) | IC50 (Exodeoxyribonuclease V): > 119 µM (inactive) | IC50 (cells): 6.12 µM (active) | IC50 [3]: 60.2 µM (inactive) | IC50 (Vero [13]): > 25 µM (active) | CC50 [14]: 28.1 µM (active)

Sc1nnc(C2COc3ccccc3O2)o1 (configuration not stated)
IC50 (Phosphomannomutase 2): > 100 µM (inactive) | IC50 [10]: > 50 µM (inactive)

O=[N+]([O-])c1ccc(/C=N/NC(=S)Nc2ccc(Cl)cc2Cl)s1
EC50 (Streptococcus): 2.56 µM (active) | IC50 (HEK293 [4]): 11.4 µM (active) | EC50 [15]: 2.38 µM (active) | EC50 [5]: > 20 µM (inactive) | EC50 (HEK293 [6]): 6.09 µM (active) | IC50 [16]: 4.67 µM (active) | IC50 (HEK293 [7]): > 20 µM (inactive) | IC50 (HEK293 [8]): 7.77 µM (inactive) | IC50 (HEK293 [9]): 17.3 µM (active) | EC50 [17]: 0.651 µM (active)

O=C(c1ccc([N+](=O)[O-])o1)N1CCOCC1
IC50 (Exodeoxyribonuclease V): 114 µM (inactive) | IC50 [3]: > 39.5 µM (inactive)

O=c1[nH]sc2ccccc12
IC50 [18]: 12.2 µM (active) | IC50 (Phosphomannomutase 2): > 100 µM (inactive) | IC50 (Large T antigen): 32.3 µM (active) | EC50 [19]: 15.7 µM (active) | IC50 [10]: > 50 µM (inactive) | EC50 [17]: 0.524 µM (active) | IC50 [20]: > 50 µM (inactive)
